From patent US20090286834A1, “Pyridine Analogues VI” (AstraZeneca AB, priority 2006, published 2009) come the findings set out here.

The experiment deals with T1, P2Y12 receptor (Homo sapiens, UniProt Q9H244).
T1 construct: expressed in transfected cells; host or cells: CHO cells (membranes)
Briefly: Functional inhibition of 2-Me-S-ADP induced P2Y12 signalling (35S-GTPγS, membranes from P2Y12 transfected CHO-cells). In kind it is biochemical. To be noted: EC80 concentration of agonist 2-methyl-thio-adenosine diphosphate, 30° C. for 45 min. The protocol:
Functional inhibition of the P2Y12 receptor can be measured by in vitro assays using cell membranes from P2Y12 transfected CHO-cells, the methodology is indicated below.
Functional inhibition of 2-Me-S-ADP induced P2Y12 signalling: 5 μg of membranes were diluted in 200 μl of 200 mM NaCl, 1 mM MgCl2, 50 mM HEPES (pH 7.4), 0.01% BSA, 30 μg/ml saponin and 10 μM GDP. To this was added an EC80 concentration of agonist (2-methyl-thio-adenosine diphosphate), the required concentration of test compound and 0.1 μCi ^35S-GTPγS. The reaction was allowed to proceed at 30° C. for 45 min. Samples were then transferred on to GF/B filters using a cell harvester and washed is with wash buffer (50 mM Tris (pH 7.4), 5 mM MgCl2, 50 mM NaCl). Filters were then covered with scintilant and counted for the amount of ^35S-GTPγS retained by the filter. Maximum activity was that determined in the presence of the agonist and minimum activity in the absence of the agonist following subtraction of the value determined for non-specific activity. The effect of compounds at various concentrations was plotted according to the equation
y=A+((B−A)/(1+((C/x)̂D)))
and IC50 estimated where A is the bottom plateau of the curve i.e. the final minimum y value B is the top of the plateau of the curve i.e. the final maximum y value C is the x value at the middle of the curve. […]
Background: Binding of GTPγS marks nucleotide exchange on a G protein.

T1 sequence (Q9H244 whole entry): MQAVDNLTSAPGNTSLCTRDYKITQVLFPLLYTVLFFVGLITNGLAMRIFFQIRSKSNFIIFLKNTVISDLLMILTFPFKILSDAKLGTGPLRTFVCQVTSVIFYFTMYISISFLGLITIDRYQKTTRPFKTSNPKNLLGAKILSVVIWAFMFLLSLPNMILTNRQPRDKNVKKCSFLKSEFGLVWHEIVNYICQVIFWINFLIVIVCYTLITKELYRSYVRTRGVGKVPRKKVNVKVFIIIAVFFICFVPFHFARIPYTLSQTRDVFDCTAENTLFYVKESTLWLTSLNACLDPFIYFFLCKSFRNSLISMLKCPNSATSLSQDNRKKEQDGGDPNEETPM

A word on the IC50: it is the concentration that inhibits the measured activity by half. High values mean weaker potency in that assay, low ones greater potency in that assay. As to `CCOC(=O)c1cc(C#N)c(NC2CCC(C(=O)NS(=O)(=O)c3ccc(Cl)s3)C2)nc1C(F)(F)F` (stereo not shown) [Example 3, Ethyl 6-{[3-({[(5-chloro-2-thienyl)sulfonyl]amino}carbonyl)cyclopentyl]amino}-5-cyano-2-(trifluoromethyl)nicotinate], the IC50 was 810 nM.
